Data taken from PubChem BioAssay (NCI).
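A five-concentration, 48-hour dose response in 96-well plates underlies each endpoint, interpolated linearly between surrounding concentrations. TGI is the concentration that stops growth completely.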

Legend:
Experiment in all cases: inhibition of tumour cell growth, NCI panel, 48 h
[1] = test system: 786-0 renal
[2] = test system: A498 renal
[3] = test system: A549 NSCLC
[4] = test system: ACHN renal
[5] = test system: BT-549 breast
[6] = test system: CAKI-1 renal
[7] = test system: CCRF-CEM leukemia
[8] = test system: COLO 205 colon
[9] = test system: DU-145 prostate
[10] = test system: EKVX NSCLC
[11] = test system: HCT-116 colon
[12] = test system: HCT-15 colon
[13] = test system: HL-60(TB) leukemia
[14] = test system: HOP-62 NSCLC
[15] = test system: HOP-92 NSCLC
[16] = test system: HT29 colon
[17] = test system: IGROV1 ovarian
[18] = test system: K-562 leukemia
[19] = test system: KM12 colon
[20] = test system: LOX IMVI melanoma
[21] = test system: M14 melanoma
[22] = test system: MCF7 breast
[23] = test system: MDA-MB-231 breast
[24] = test system: MDA-MB-435
[25] = test system: MDA-N
[26] = test system: MOLT-4 leukemia
[27] = test system: NCI-H226 lung
[28] = test system: NCI-H23 lung
[29] = test system: NCI-H460 lung
[30] = test system: NCI/ADR-RES ovarian
[31] = test system: OVCAR-3 ovarian
[32] = test system: OVCAR-4 ovarian
[33] = test system: OVCAR-5 ovarian
[34] = test system: OVCAR-8 ovarian
[35] = test system: PC-3 prostate
[36] = test system: RPMI-8226 leukemia
[37] = test system: RXF 393 renal
[38] = test system: SF-295 CNS
[39] = test system: SF-539 CNS
[40] = test system: SK-MEL-2 melanoma
[41] = test system: SK-MEL-28 melanoma
[42] = test system: SK-MEL-5 melanoma
[43] = test system: SK-OV-3 ovarian
[44] = test system: SN12C renal
[45] = test system: SNB-19 CNS
[46] = test system: SNB-75 CNS
[47] = test system: SR leukemia
[48] = test system: SW-620 colon
[49] = test system: T-47D breast
[50] = test system: TK-10 renal
[51] = test system: U251 CNS
[52] = test system: UACC-257 melanoma
[53] = test system: UACC-62 melanoma
[54] = test system: UO-31 renal

Measured: TGI

O=C(NCP(=O)(O)O)c1cccnc1
> 100 µM: all assays above
